Marks after values point to notes of the source that are not given here.
What was measured:
HeLa tumor = assay: In vivo light-triggered prodrug activation and tumor inhibition; parameters: species or system BALB/c nude mice; settings: 8 mg/kg intravenous Day 1 and 6, no light
Experimental: Encouraged by the anti-proliferation effect and tumor retention capability, Os/BC NPs were considered as an applicable agent for light-triggered drug release and photoactivated cancer chemotherapy. The HeLa tumor-bearing mice were randomly divided into […] (n=5) when the tumors reached at around […]. PBS, free Cb (8 mg/kg), Os NPs (at the equivalent concentration of Os in Os/BC NPs), BC NPs (at the equivalent concentration of Cb) and Os/BC NPs (at the equivalent concentration of Cb) were intravenously injected on Day 1 (FIG. 6C). At 24 h post injection, NIR-light irradiation (690 nm, 300 mW/cm^2, 10 min) was applied topically onto the tumor area (FIG. 6D). The formulation injection and light irradiation were repeated on Day 6 and 7, respectively. For evaluating therapeutic efficacy, tumor volume was recorded within the treatment period. […] However, no statistical difference was found between Group 3 and Groups 1, 2, 4 and 5. […] Hematoxylin and eosin (H&E) staining assay was conducted to investigate the pathology of the tumors and organs. […]
The anti-tumor efficacy of the formulations in presence or absence of light was investigated with HeLa tumor-bearing mice. […] Tumor sizes and body weights were measured during the period, and the tumor volume was calculated as V=½×width^2×length. […]

[1] = Photophysical properties (UV-Vis absorption, emission, energy levels); type: physicochemical; settings: for λabs, max (S0-S1): S0-S1 (1MLCT) absorption; for λabs, max (S0-S1) / λabs, max (S0-T1): dichloromethane with 2% acetone, 10 μM; for λabs, max (S0-T1): S0-T1 (3MLCT, S-T) absorption; for E (absorption coefficient, S0-T1 band): at 688 nm (S0-T1); for Energy level T1 state: calculated from maximum T1 (phosphorescence) emission wavelength
Text: The absorption peak at about 492 nm is identified as the singlet metal-to-ligand charge transfer (^1MLCT) absorption, also termed as singlet-singlet (S-S) absorption. […] The two twistable bromophenyl groups of the bromophenyl terpyridine ligands extend the S-T absorption from 650 nm to 750 nm with increased absorption coefficient.
CombiFlash Rf chromatography instrument was purchased from Teledyne ISCO (Lincoln, USA) for chemical purification. Light sources used in this study were purchased from Yuanming Laser (Ningbo, China) and Mightex (CA, USA). The purity verification and photolysis study were conducted with a high-performance liquid chromatography (HPLC) system (Agilent technologies, 1260), attached with C-18 columns which were obtained from Agilent (Santa Clara, California, United States). Nuclear magnetic resonance (NMR) spectroscopy was collected by Bruker AVANCE III HD 500 spectrometer (MA, US). Fluorescence, phosphorescence and UV-vis spectra were collected by a SpectraMax M4 microplate reader (Molecular Devices, CA, US). The particle size and surface charge were recorded by a dynamic light scattering (DLS) device, Zetasizer Nano-ZS90 (Malvern instruments, UK). Transmission electron microscope (TEM) imaging was conducted on a Hitachi HT7700 TEM (Tokyo, Japan). ACEA NovoCyte Quanteon flow cytometer (ACEA Biosciences, CA, USA) was used for flow cytometry. In vivo and ex vivo imaging of the mice were conducted with an In Vivo Imaging System (PerkinElmer, USA). Devices for animal study like including balance and vernier caliper were kindly provided by The Centre for Comparative Medicine Research (CCMR), The University of Hong Kong.

[2] = Stern-Volmer phosphorescence quenching assay (TTET from Os(bptpy)2^2+ to BODIPY-Cb); type: physicochemical
Experimental: The energy transfer quenching rate constants (kTTET) was measured by Stern-Volmer experiment. […] Oxygen was removed by nitrogen bubbling (50 mL/min) for 10 min.
Energy transfer quenching rate constants of this TTET process, quantified as kTTET, can be calculated based on the below equation (2)
(τ0: phosphorescence lifetime of Os(bptpy)2^2+ in N2-saturated solution without quencher.)
For Os(bptpy)2^2+, τ0=0.20 μs.

[3] = Encapsulation efficiency and loading capacity of Os/BC NP (HPLC); type: physicochemical; settings: component of Os/BC NP
Experimental: Flash nanoprecipitation method was used to fabricate the photosensitizer/prodrug-loading nanoparticles. […] Different formulations (Os NPs, BC NPs and Os/BC NPs) were then prepared with optimized ratios of components. Briefly, 224 μL of the mixed stock solution was added into 1.8 mL N2-saturated water under vortexing. The resulted solutions were added to dialysis bags (MW: 3400 Da) and dialyzed against 4 L of water for 24 h. The water out of dialysis bag was renewed every 8 h. The resulted solution of NPs was collected and filtrated with 220 nm filter. Finally, the NPs solutions were concentrated by ultrafiltration (Mw=100 kDa, 2000×g, 10 min) and stored at 4° C. until use. The concentrations of each component were measured by using HPLC. Loading capacity and encapsulation efficiency were calculated as follow: […]

[4] = in toluene, calculated by TD-DFT, referred to previous studies; cited from earlier work
[5] = N2-saturated solution without quencher; cited from earlier work

λabs, max (S0-S1) [1] | λabs, max (S0-S1) ([1]; listed as Os(bptpy)2•2PF6) | λabs, max (S0-T1) [1] [nm] | λabs, max (S0-T1) ([1]; listed as Os(bptpy)2•2PF6) | E (absorption coefficient, S0-S1 band) ([1]; at 491 nm (S0-S1)) [M⁻¹ cm⁻¹] | E (absorption coefficient, S0-T1 band) [1] [M⁻¹ cm⁻¹] | E (absorption coefficient, S0-T1 band) ([1]; listed as Os(bptpy)2•2PF6) [M⁻¹ cm⁻¹] | Energy level S1 state ([1]; calculated by maximum S1 emission wavelength, E = 1240/λem, S1) | Energy level T1 state ([1]; E = 1240/λem) [eV] | Energy level T1 state ([1]; E = 1240/λem, listed as Os(bptpy)2•2PF6) | λem, max ([1]; λex = 491 nm) | λem, max ([1]; λex = 688 nm) | Quenching constant kq ([2]; 10 μM Os(bptpy)2^2+, quencher BODIPY-Cb 0-7.5 μM, N2) | Encapsulation Efficiency [3] [%] | Loading Capacity [3] [%] | Compound | tumor volume (anti-tumor effect) (HeLa tumor) | TTET rate constant (kTTET) ([2]; energy transfer from T1 of Os(bptpy)2^2+ to T1 of BODIPY-Cb) | T1 lifetime [4] | τ0 phosphorescence lifetime [5] [μs]
– | – | – | – | – | – | – | – | – | – | – | – | – | – | – | O=C(O)CCCc1ccc(N(CCCl)CCCl)cc1 [chlorambucil] | did not exhibit detectable anti-tumor effect | – | – | –
about 492 nm | 491 (S0-S1) nm | 688 | 688 (S0-T1) nm | 73500 | 26600 | 26600 | 2.56^h eV | 1.69 | 1.69^i eV | 498^c nm | 734^d nm | (5.491±0.282)×10^4 M^−1 | 29.43 | 0.22 | Os (II) bromophenyl terpyridine complex [Os(bptpy)2^2+] | – | (2.72±0.14)×10^11 M^−1 s^−1 | 0.20^f μs | 0.20
